Assay results published in patent publication US10745395B2, “Compounds for their use as drugs for the treatment and/or the prevention of infection(s) caused by biofilm-forming bacteria” (CENTRE NATIONAL DE LA RECHERCHE SCIENTIFIQUE, priority 2014, dated 2020).

What was measured:
Assay type in all cases: cell-based, Pseudomonas aeruginosa
[1] = tested on: P. aeruginosa strain PAR 5 biofilm; experiment: Reduction of biofilm growth (percent vs culture control)
Summary of the method: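 Iminosugars at 0.9 mM final were added to P. aeruginosa in TSB either at seeding (early biofilm, 48 h at 37° C) or 48 h after bacterial adherence (mature biofilm). Biofilm stained with Congo Red and read spectrophotometrically; percent decrease in thickness is the mean of 3 measurements relative to untreated control (100%).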

[2] = tested on: P. aeruginosa strain PAR 5 biofilm; experiment: Early biofilm model, Congo red staining; conditions: for absorbance (Congo red, biofilm formation): 0.9 mM, 492 nm
Summary of the method: (§1)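 Biofilm set up from 1×10^8 CFU/ml P. aeruginosa in TSB, centrifuged 10 min at 2000 rpm; iminosugars at 0.9 mM added at seeding, incubated up to 48 h at 37° C. Biofilm stained with 0.1% Congo red for 30 min and read at 492 nm at 0, 0.5, 8, 24 and 48 h, with viable counts in parallel; TSB-only cultures served as control.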

[3] = tested on: P. aeruginosa strain PAR 50 biofilm; experiment: Early biofilm model, Congo red staining; conditions: for absorbance (Congo red, biofilm formation): early biofilm, 0.9 mM, 492 nm
Summary of the method: as §1

[4] = tested on: P. aeruginosa strain PAR 20 biofilm; experiment: Early biofilm model, Congo red staining; conditions: for absorbance (Congo red, biofilm formation): early biofilm, 0.9 mM, 492 nm
Summary of the method: as §1

[5] = tested on: P. aeruginosa strain PAR 50 biofilm; experiment: Reduction of biofilm growth (percent vs culture control)
Summary of the method: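 Biofilms grown in TSB at 37 °C; compounds at 0.9 mM final added at inoculation (early biofilm, 48 h) or 48 h after bacterial adherence (mature biofilm). Congo Red-stained biofilm read by spectrophotometry, mean of 3 measurements; reduction expressed as percent versus untreated control set to 100%.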

[6] = tested on: P. aeruginosa strain PAR 5 biofilm; experiment: Mature biofilm model, Congo red staining; conditions: for absorbance (Congo red, biofilm development): mature biofilm, compound added 48 h after induction of biofilm
Summary of the method: (§2)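 Compounds added 48 h after bacterial adherence in 96-well plates; biofilm checked at 48, 48.5, 56, 72 and 96 h. Biomass stained with 0.1% Congo red for 30 min at room temperature, washed, absorbance read at 492 nm. Triplicate means ±SD.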

[7] = tested on: P. aeruginosa strain PAR 50 biofilm; experiment: Mature biofilm model, Congo red staining; conditions: for absorbance (Congo red, biofilm development): mature biofilm, compound added 48 h after induction of biofilm
Summary of the method: as §2

[8] = tested on: P. aeruginosa strain PAR 20 biofilm; experiment: Mature biofilm model, Congo red staining; conditions: for absorbance (Congo red, biofilm development): mature biofilm, compound added 48 h after induction of biofilm
Summary of the method: as §2

[9] = tested on: P. aeruginosa strain PAR 50; experiment: Number of viable bacteria in early and mature biofilm (viable count)
Summary of the method: (§3)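 Biofilm contents of P. aeruginosa PAR 5, PAR 20 or PAR 50 wells sampled at 0-96 h, iminosugars added at 48 h. Decimal dilutions in TSB were plated on McConkey agar, incubated 24 h at 37° C., and colonies counted as log CFU/ml; detection limit 100 CFU/ml.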

[10] = tested on: P. aeruginosa strain PAR 5; experiment: as above
Summary of the method: as §3

[11] = tested on: P. aeruginosa strain PAR 20; experiment: as above
Summary of the method: as §3

[12] = tested on: P. aeruginosa strain PAR 20 biofilm; experiment: Reduction of biofilm growth (percent vs culture control)
[13] = in comparison with culture control

CCCCCC[C@H]1NC[C@@H](O)[C@H](O)[C@H]1O [Compound 1, α-1-C-hexyl-1,5-dideoxy-1,5-imino-D-xylitol]
reduction of biofilm growth ([1]; 8 hours of incubation): about 90% | reduction of biofilm growth ([1]; 24 hours of incubation): about 90% | reduction of biofilm growth ([1]; 48 hours of incubation): about 25% | reduction of biofilm growth ([1]; 72 hours of incubation): about 10% | effect on biofilm growth ([1]; notably an early biofilm): can reduce the biofilm growth | biofilm formation at 8 hours, 24 hours and 48 hours ([2]; early biofilm): no biofilm formation | absorbance (Congo red, biofilm formation) ([2]; early biofilm, 8 hours): about 0.25 a.u. | absorbance (Congo red, biofilm formation) ([2]; early biofilm, 24 hours): about 0.25 a.u. | absorbance (Congo red, biofilm formation) ([2]; early biofilm, 48 hours): about 0.25 a.u. | effect on formation of an early biofilm [2, 13]: inhibit the formation of an early biofilm | absorbance (Congo red, biofilm formation) ([3]; 8 hours): about 0.5 a.u. | absorbance (Congo red, biofilm formation) ([3]; 24 hours): about 0.8 a.u. | absorbance (Congo red, biofilm formation) ([3]; 48 hours): about 0.9 a.u. | effect on formation of an early biofilm [3, 13]: inhibit the formation of an early biofilm | absorbance (Congo red, biofilm formation) ([4]; 8 hours): about 1.0 a.u. | absorbance (Congo red, biofilm formation) ([4]; 24 hours): about 1.0 a.u. | absorbance (Congo red, biofilm formation) ([4]; 48 hours): about 0.75 a.u. | effect on formation of an early biofilm [4, 13]: inhibit the formation of an early biofilm | reduction of biofilm growth ([5]; 8 hours of incubation): about 30% | reduction of biofilm growth ([5]; 24 hours of incubation): about 30% | reduction of biofilm growth ([5]; 48 hours of incubation): about 0% | reduction of biofilm growth ([5]; 72 hours of incubation): about 0% | effect on biofilm growth ([5]; notably an early biofilm): can reduce the biofilm growth | influence on mature biofilm formation [6]: weak influence | absorbance (Congo red, biofilm development) ([6]; 48 hours): about 0.7 a.u. | absorbance (Congo red, biofilm development) ([6]; 56 hours): about 1.1 a.u. | absorbance (Congo red, biofilm development) ([6]; 72 hours): about 1.25 a.u. | absorbance (Congo red, biofilm development) ([6]; 96 hours): about 0.5 a.u. | influence on mature biofilm formation [7]: weak influence | absorbance (Congo red, biofilm development) ([7]; 48 hours): about 1.6 a.u. | absorbance (Congo red, biofilm development) ([7]; 56 hours): about 1.5 a.u. | absorbance (Congo red, biofilm development) ([7]; 72 hours): about 2.4 a.u. | absorbance (Congo red, biofilm development) ([7]; 96 hours): about 1.9 a.u. | influence on mature biofilm formation [8]: weak influence | absorbance (Congo red, biofilm development) ([8]; 48 hours): about 0.75 a.u. | absorbance (Congo red, biofilm development) ([8]; 56 hours): about 0.6 a.u. | absorbance (Congo red, biofilm development) ([8]; 72 hours): about 1.5 a.u. | absorbance (Congo red, biofilm development) ([8]; 96 hours): about 1.0 a.u. | number of viable P. aeruginosa ([9]; early biofilm, 0 h): 8 × 10^7 CFU/ml | number of viable P. aeruginosa ([9]; early biofilm, 8 h): 2 × 10^8 CFU/ml | number of viable P. aeruginosa ([9]; early biofilm, 24 h): 4 × 10^8 CFU/ml | number of viable P. aeruginosa ([9]; early biofilm, 48 h): 3 × 10^8 CFU/ml | number of viable P. aeruginosa ([9]; mature biofilm, 56 h): 2 × 10^9 CFU/ml | number of viable P. aeruginosa ([9]; mature biofilm, 72 h): 1 × 10^9 CFU/ml | number of viable P. aeruginosa ([9]; mature biofilm, 96 h): 1 × 10^9 CFU/ml | number of viable P. aeruginosa ([10]; early biofilm, 0 h): 2 × 10^6 CFU/ml | number of viable P. aeruginosa ([10]; early biofilm, 8 h): 3 × 10^7 CFU/ml | number of viable P. aeruginosa ([10]; early biofilm, 24 h): 9 × 10^7 CFU/ml | number of viable P. aeruginosa ([10]; early biofilm, 48 h): 1 × 10^8 CFU/ml | number of viable P. aeruginosa ([10]; mature biofilm, 56 h): 3 × 10^8 CFU/ml | number of viable P. aeruginosa ([10]; mature biofilm, 72 h): 2 × 10^8 CFU/ml | number of viable P. aeruginosa ([10]; mature biofilm, 96 h): 3 × 10^8 CFU/ml | number of viable P. aeruginosa ([11]; early biofilm, 0 h): 4 × 10^6 CFU/ml | number of viable P. aeruginosa ([11]; early biofilm, 8 h): 7 × 10^7 CFU/ml | number of viable P. aeruginosa ([11]; early biofilm, 24 h): 1 × 10^8 CFU/ml | number of viable P. aeruginosa ([11]; early biofilm, 48 h): 4 × 10^8 CFU/ml | number of viable P. aeruginosa ([11]; mature biofilm, 56 h): 6 × 10^7 CFU/ml | number of viable P. aeruginosa ([11]; mature biofilm, 72 h): 5 × 10^7 CFU/ml | number of viable P. aeruginosa ([11]; mature biofilm, 96 h): 1 × 10^8 CFU/ml | reduction of biofilm growth ([12]; 8 hours of incubation): about 30% | reduction of biofilm growth ([12]; 24 hours of incubation): about 40% | reduction of biofilm growth ([12]; 48 hours of incubation): about 40% | reduction of biofilm growth ([12]; 72 hours of incubation): about 0% | effect on biofilm growth ([12]; notably an early biofilm): can reduce the biofilm growth
